Data set [1] has as its target T1, recombinant human ETA receptors (Homo sapiens, UniProt P25101).
T1 sequence (P25101 21-427): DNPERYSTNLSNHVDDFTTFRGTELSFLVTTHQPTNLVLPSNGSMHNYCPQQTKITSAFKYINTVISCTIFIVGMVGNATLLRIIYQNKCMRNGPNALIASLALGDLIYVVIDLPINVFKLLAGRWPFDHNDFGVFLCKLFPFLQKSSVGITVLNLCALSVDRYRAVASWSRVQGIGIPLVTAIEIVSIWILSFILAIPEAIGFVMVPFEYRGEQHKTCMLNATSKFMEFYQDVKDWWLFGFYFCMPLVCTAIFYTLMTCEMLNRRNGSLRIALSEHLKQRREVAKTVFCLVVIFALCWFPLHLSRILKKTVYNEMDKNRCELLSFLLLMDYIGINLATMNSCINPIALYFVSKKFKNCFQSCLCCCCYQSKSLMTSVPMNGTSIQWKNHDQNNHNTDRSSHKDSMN
The data set is described as follows: Inhibition of endothelin binding on recombinant human ETA receptors expressed in CHO cells ([125I]ET-1, whole attached cells). Also noted: expressed in transfected cells; host or cells: CHO cells. To be noted: 35 pM [125I]ET-1, 2 h, 22° C. The procedure: II. […] Cell culture. CHO cells, expressing recombinant human ETA receptor are grown in Minimal Essential Alpha Medium (Gibco Laboratories, Paisley, Scotland) supplemented with 0.1 μM methotrexate, 5% dialyzed fetal calf serum, 100 U/ml of penicillin and 100 μg/ml of streptomycin. Binding assays with whole attached cells are performed in 500 μl Dulbecco's Eagle medium (DMEM) containing 2 mg/ml bovine serum albumin and 25 mM Hepes. After incubation (2 h, 22° C.) in the presence of 35 pM [^125 I]ET-1 and increasing concentrations of various antagonists, the cells are extensively washed and finally solubilized in 1% (w/v) SDS, 0.5 M NaOH and 100 mM EDTA. Each assay is performed three times in triplicates and non specific binding is assessed in the presence of 100 nM unlabelled ET-1. Specific binding is defined as the difference between total binding and non specific binding. IC50 values are determined after logit/log transformation of the binding data.

The target of data set [2] is T1, recombinant human ETA receptors. The experiment in a line: Inhibition of endothelin binding to recombinant human ETA receptors expressed in baculovirus-infected insect cells (125I-endothelin). To be noted: 125I-endothelin 20 pM; baculovirus-infected insect cell membranes; 20° C. for 2 hours or 4° C. for 24 hours. The procedure: I. […] A cDNA coding for human ETA receptors of human placenta was cloned ([…]. Yang, Y. Furuichi and C. Miyamoto, BBRC 180, 1265-1272) and expressed in the Baculovirus-insect cell system. Baculovirus-infected insect cells from a 23 1 fermenter are centrifuged off (3000×g, 15 minutes, 4° C.) 60 hours after the infection, re-suspended in Tris buffer (5 mM, pH 7.4, 1 mM MgCl2) and again centrifuged. After a further re-suspension and centrifugation the cells are suspended in 800 ml of the same buffer and […] at -120° C. The cells disintegrate when the suspension in this hypotonic buffer mixture is thawed. After a repeated […]/thawing cycle the suspension is homogenised and centrifuged (25000×g, 15 minutes, 4° C.). After suspension in Tris buffer (75 mM, pH 7.4, 25 mM MgCl2, 250 mM sucrose) 1 ml aliquots (protein content about 3.5 mg/ml) are stored at -85° C. […] The incubation is carried out at 20° C. for 2 hours or at 4° C. for 24 hours. The separation of free and membrane-bound radio-ligands is carried out by filtration over a glass fibre filter.

Data set [3] has as its target T2, isolated rat aorta rings (Rattus norvegicus, UniProt P26684).
T2 construct: Rings with a length of 5 mm were cut out from the thorax aorta of adult Wistar-Kyoto rats; from tissue; host or cells: thoracic aorta of adult Wistar-Kyoto rats, endothelium removed
T2 sequence (P26684 21-426): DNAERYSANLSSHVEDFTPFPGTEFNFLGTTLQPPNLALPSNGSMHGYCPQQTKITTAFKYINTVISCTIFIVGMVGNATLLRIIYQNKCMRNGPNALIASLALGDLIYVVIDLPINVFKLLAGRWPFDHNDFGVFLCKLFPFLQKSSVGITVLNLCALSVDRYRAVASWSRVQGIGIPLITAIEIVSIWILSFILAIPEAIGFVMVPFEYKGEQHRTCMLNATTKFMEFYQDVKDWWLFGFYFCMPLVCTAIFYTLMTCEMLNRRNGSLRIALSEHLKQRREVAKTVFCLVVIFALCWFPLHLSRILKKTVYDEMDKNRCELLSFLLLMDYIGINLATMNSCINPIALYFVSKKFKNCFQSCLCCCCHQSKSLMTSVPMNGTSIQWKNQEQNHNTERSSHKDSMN
The data set is described as follows: Inhibition of endothelin-induced contractions in isolated rat aorta rings. Set-up: species or system adult Wistar-Kyoto rats. To be noted: rat aorta rings without endothelium, 37° C.; endothelin-1 cumulative; from dose ratio; read-out: pA2 (converted). The procedure: Rings with a length of 5 mm were cut out from the thorax aorta of adult Wistar-Kyoto rats. The endothelium was removed by lightly rubbing the internal surface. Each ring was immersed at 37° C. in 10 ml of Krebs-Henseleit solution in an isolated bath while gassing with 95% O2 and 5% CO2. The isometric stretching of the rings was measured. The rings were stretched to a pre-tension of 3 g.
The corresponding pA2 value, which is a measure of the activity of the test compound, was calculated using a computer programme according to the following equation from the "dose ratio" DR for each individual dosage-activity curve.
pA2 =log(DR-1)-log(antagonist-concentration)

Data set [4] in a line: Pharmacokinetics of the endothelin receptor antagonists after oral gavage in rats. To be noted: rat, plasma, 5 mg/kg in DMSO, Wistar rats, bioassay; for AUC: read-out: Area under the plasma concentration time curve; for Cmax: read-out: Peak concentration in rat plasma. Type of data set: in vivo. The procedure: IV. […] The test compounds were dissolved in DMSO at a concentration of 5 mg/mL and administered orally by gavage at a dose of 1 mL/kg body weight corresponding to 5 mg/kg body weight. Two rats were administered per test compound. Blood samples were collected from the retro-orbital sinus at 1 and 5 h post dose in one rat, and at 3 and 7 h post dose in the other rat. In addition a terminal 24 h blood sample was collected from both rats by heart puncture. Blood was collected on EDTA-NaF. Plasma was derived by centrifugation at 2000 g at +4° C. for 15 min. Plasma samples were assayed for active drug related material with a bioassay, based on the binding competition of tested compounds and ^125 I ET-1 on recombinant ETA receptors. Quantitation of plasma samples was by comparison to a calibration curve build up from control rat plasma spiked with known concentrations of the test compounds.

The results in this text go back to US6242601A, “Heterocyclic sulfamides” (Hoffman-La Roche Inc., priority 1999, dated 2001).

pIC50: −log10 of the molar value.

A word on the pIC50: it is the IC50 on a negative log10 scale, so that one unit is a factor of ten.

On to `COc1ccccc1Oc1c(NS(=O)(=O)c2ccc(C)cn2)nc(-c2ccnc(CO)c2)nc1OC` [Example 29, 5-methyl-pyridine-2-sulfonic acid [2-(2-hydroxymethyl-pyridin-4-yl)-6-methoxy-5-(2-methoxy-phenoxy)-pyrimidin-4-yl]-amide], for which the figures for the pIC50 in data set [1] and in data set [2] were at least 8.00 and at least 7.30, respectively.

Turning to `COc1ccccc1Oc1c(NS(=O)(=O)c2ccc(C(C)C)cn2)nc(-c2ccnc(CO)c2)nc1OC` [Example 44, 5-isopropyl-pyridine-2-sulfonic acid [2-(2-hydroxymethyl-pyridin-4-yl)-6-methoxy-5-(2-methoxy-phenoxy)-pyrimidin-4-yl]-amide], the Kb in data set [3] was at most 0.00631 µM.

Consider `COc1ccccc1Oc1c(NS(=O)(=O)c2ccc(C)cn2)nc(-c2ccnc(OCCO)c2)nc1OC` [Example 36, 5-methyl-pyridine-2-sulfonic acid [2-[2-(2-hydroxy-ethoxy)-pyridin-4-yl]-6-methoxy-5-(2-methoxy-phenoxy)-pyrimidin-4-yl]-amide], for which the pIC50 in data set [1] was at least 8.00.

With `COc1ccccc1Oc1c(NS(=O)(=O)c2ccc(C)cn2)nc(-c2ccnc(C#N)c2)nc1OC` [Example 19, 5-methyl-pyridine-2-sulfonic acid [2-(2-cyano-pyridin-4-yl)-6-methoxy-5-(2-methoxy-phenoxy)-pyrimidin-4-yl]-amide], in data set [1], the pIC50 is at least 8.00. Besides, in data set [4], the AUC is at least 10 µg·h/mL and the Cmax was at least 1.5 µg/mL.

Consider `CCS(=O)(=O)NCc1cc(-c2nc(NS(=O)(=O)c3ccc(C)cn3)c(Oc3ccccc3OC)c(OC)n2)ccn1` [Example 32, 5-methyl-pyridine-2-sulfonic acid [2-[2-(ethanesulfonylamino-methyl)-pyridin-4-yl]-6-methoxy-5-(2-methoxy-phenoxy)-pyrimidin-4-yl]-amide], for which the pIC50 in data set [2] is at least 7.30.

In the case of `COC(=O)COc1cccc(-c2nc(NS(=O)(=O)c3ccc(C)cn3)c(Oc3ccccc3OC)c(OC)n2)c1` [Example 2, {3-[4-methoxy-5-(2-methoxy-phenoxy)-6-(5-methyl-pyridine-2-sulfonylamino)-pyrimidin-2-yl]-phenoxy}-acetic acid methyl ester], the pIC50 in data set [1] was at least 8.00.

As for `COc1ccccc1Oc1c(NS(=O)(=O)c2ccc(C(C)C)cn2)nc(-c2ccnc(C(=O)N(C)C)c2)nc1OC` [Example 51, 4-[4-(5-isopropyl-pyridine-2-sulfonylamino)-6-methoxy-5-(2-methoxy-phenoxy)-pyrimidin-2-yl]-pyridine-2-carboxylic acid dimethylamide], in data set [2], the pIC50 was at least 7.30.

In the case of `COc1ccccc1Oc1c(NS(=O)(=O)c2ccc(C(C)C)cn2)nc(-c2ccnc(-c3noc(C)n3)c2)nc1OC` [Example 56, 5-isopropyl-pyridine-2-sulfonic acid {6-methoxy-5-(2-methoxy-phenoxy)-2-[2-(5-methyl-[1,2,4]oxadiazol-3-yl)-pyridin-4-yl]-pyrimidin-4-yl}-amide], the pIC50 in data set [2] is at least 7.30.

Take `COc1ccccc1Oc1c(NS(=O)(=O)c2ccc(C)cn2)nc(-c2ccnc(CNC(C)=O)c2)nc1OC` [Example 30, N-{4-[4-methoxy-5-(2-methoxy-phenoxy)-6-(5-methyl-pyridine-2-sulfonylamino)-pyrimidin-2-yl]-pyridin-2-ylmethyl}-acetamide]: the pIC50 in data set [1] is at least 8.00.

As to `COC(=O)c1cc(-c2nc(NS(=O)(=O)c3ccc(C)cn3)c(Oc3ccccc3OC)c(OC)n2)ccn1` [Example 22, 4-[4-methoxy-5-(2-methoxy-phenoxy)-6-(5-methyl-pyridine-2-sulfonylamino)-pyrimidin-2-yl]-pyridine-2-carboxylic acid methyl ester], in data set [4], the AUC is at least 10 µg·h/mL and the Cmax was at least 1.5 µg/mL. In data set [2], the pIC50 is at least 7.30.

With `COc1ccccc1Oc1c(NS(=O)(=O)c2ccc(C(C)C)cn2)nc(-c2ccnc(OCCO)c2)nc1OC` [Example 57, 5-isopropyl-pyridine-2-sulfonic acid [2-[2-(2-hydroxy-ethoxy)-pyridin-4-yl]-6-methoxy-5-(2-methoxy-phenoxy)-pyrimidin-4-yl]-amide], the Kb in data set [3] was at most 0.00631 µM.

Regarding `COc1ccccc1Oc1c(NS(=O)(=O)c2ccc(C)cn2)nc(-c2ccnc(C(=O)OCCO)c2)nc1OC` [Example 25, 4-[4-methoxy-5-(2-methoxy-phenoxy)-6-(5-methyl-pyridine-2-sulfonylamino)-pyrimidin-2-yl]-pyridine-2-carboxylic acid 2-hydroxy-ethyl ester], the pIC50 in data set [2] was at least 7.30.

Consider `CCOc1cc(-c2nc(NS(=O)(=O)c3ccc(C)cn3)c(Oc3ccccc3OC)c(OC)n2)ccn1` [Example 38, 5-methyl-pyridine-2-sulfonic acid [2-(2-ethoxy-pyridin-4-yl)-6-methoxy-5-(2-methoxy-phenoxy)-pyrimidin-4-yl]-amide], for which the pIC50 in data set [2] is at least 7.30.

`CNC(=O)c1cc(-c2nc(NS(=O)(=O)c3ccc(C(C)C)cn3)c(Oc3ccccc3OC)c(OC)n2)ccn1` [Example 48, 4-[4-(5-isopropyl-pyridine-2-sulfonylamino)-6-methoxy-5-(2-methoxy-phenoxy)-pyrimidin-2-yl]-pyridine-2-carboxylic acid methylamide]: in data set [2], the pIC50 is at least 7.30.

As to `C=C(C)c1ccc(S(=O)(=O)Nc2nc(-c3cccc(O)c3)nc(OC)c2Oc2ccccc2OC)nc1` [Example 15, 5-isopropenyl-pyridine-2-sulfonic acid [2-(3-hydroxy-phenyl)-6-methoxy-5-(2-methoxy-phenoxy)-pyrimidin-4-yl]-amide], the pIC50 in data set [2] is at least 7.30.

In the case of `COc1ccccc1Oc1c(NS(=O)(=O)c2ccc(C)cn2)nc(-c2ccnc(C(=N)NO)c2)nc1OC` [Example 34, N-hydroxy-4-[4-methoxy-5-(2-methoxy-phenoxy)-6-(5-methyl-pyridine-2-sulfonylamino)-pyrimidin-2-yl]-pyridine-2-carboxamidine], the pIC50 in data set [2] is at least 7.30.
